From PMC7249120, “Hybrid Imaging Agents for Pretargeting Applications Based on Fusarinine C—Proof of Concept” (Molecules, 2020)

Assays:
[1] = system: CD20-expressing Raji cells pre-treated with Rituximab(RTX)–TCO; assay: Cell binding studies on Raji cells pre-treated with RTX-TCO or non-modified RTX; format: cell-based, human; design: concentration or dose not given beside the values; conditions: radioligand 30 min, 37 °C
Experimental: CD20-expressing Raji cells ([…] lymphoblast-like B-lymphocyte cells) were obtained from the American Type Culture Collection (ATCC, Manassas, Virginia, USA). The cells were cultured in tissue culture flasks (Cellstar; Greiner Bio-One, Kremsmuenster, Austria) using RPMI-1640 medium with 10% (v/v) fetal bovine serum (FBS) as supplement (Invitrogen Corporation, Lofer, Austria). For cell binding studies 10 × 10^6 cells were washed twice with fresh medium, diluted with PBS to a final concentration of 1 × 10^6 cells per mL and 500 µL of cell suspension was transferred to Eppendorf tubes. Hereafter, 50 µL of RTX–TCO or non-modified RTX as negative control (both 0.5 µM) was added and the cell suspension was maintained at 37 °C under gentle shaking. After 1 h the suspension was centrifuged (2 min, 11 × 10^3 rcf), the supernatant was discarded and the cells were washed twice with 600 µL PBS and finally resuspended with 450 µL PBS. Subsequently 50 µL of the radioligand solution (22 nM) was added and the suspension was incubated for 30 min at 37 °C. After centrifugation and two washing steps with 600 µL PBS, the cells were resuspended in 500 µL PBS and transferred to polypropylene vials for gamma counter measurement followed by calculation of cell-associated activity in comparison to the total activity applied (n = 3, six replicates).

[2] = design: species or system BALB/c mice; conditions: mouse, in vivo, iv
Experimental: Biodistribution studies of the FSC-based hybrid imaging agents radiolabeled with Gallium-68 were performed using healthy five-week-old female BALB/c mice (Charles River Laboratories, Sulzfeld, Germany). Animals (n = 3) were injected via lateral tail vein with 1 nmol of conjugate and a total activity of approximately 6 MBq. Mice were sacrificed by cervical dislocation 1 h p.i. followed by collection of the main organs and tissue, subsequent gamma counter measurement and calculation of the percentage of injected activity per gram tissue (% IA/g).

[3] = format: physicochemical; conditions: pH 7.4
Experimental: To determine the hydrophilicity the distribution of the ^68Ga-labeled conjugates between an organic (octanol) and aqueous (PBS) layer was assessed. Aliquots (50 µL) of the ^68Ga-labeled tracers (~5 µM) were diluted in 1 mL of octanol/PBS (1:1, v/v) and the mixture was vortexed at 1400 rpm (MS 3 basic vortexer, IKA, Staufen, Germany) for 15 min at RT. Subsequently the mixture was centrifuged for 2 min at 4500 rpm followed by measuring aliquots (50 µL) of both layers in the gamma counter (Wizard^2 3”, Perkin Elmer, Waltham, MA, USA). LogD was calculated using Microsoft Excel (n = 3, six replicates).

[4] = system: TCO-alendronate pre-treated mice (bone); assay: PET/CT and optical imaging in the alendronate-TCO bone pretargeting model; format: in vivo, BALB/c mice; conditions: TCO-alendronate pre-treated mice vs alendronate alone; PET/CT 1 h p.i., OI of excised bones 24 h p.i.
Experimental: For the proof of concept of pretargeting in vivo a model described by Yazdani et al. was applied, based on TCO-modified alendronate for bone targeting. For preparation of TCO–alendronate, briefly, 20 mg sodium alendronate trihydrate (Sigma Aldrich) was dissolved in 400 µL 0.1N sodium-bicarbonate solution pH 8.5. Then 0.6 mL TCO–NHS ester (Click chemistry tools, Scottsdale, AZ, USA), 20 mg/mL in DMSO, were slowly added to the solution and stirred overnight in the dark, followed by freeze drying. As a control the same preparation was prepared, replacing TCO–NHS solution by the same volume of DMSO. For injection in mice the residue was dissolved in water and adjusted to pH 7 (30 mM).
MicroPET/CT images were acquired with an Albira PET/SPECT/CT small animal imaging system (Bruker Biospin Corporation, Woodbridge, CT, USA). […] After reconstruction, acquired data was viewed and analyzed with PMOD software (PMOD Technologies Ltd., Zurich, Switzerland).
Near-infrared in vivo fluorescence imaging was performed with an In-Vivo MS FX PRO small animal imaging system (Bruker Biospin Corporation, Woodbridge, CT, USA) after the PET/CT investigation. […] An appropriate filter set (λex = 710 nm and λem = 790 nm) was used for acquiring the fluorescence of the IRDye800CW-conjugates ex vivo. […] Acquired images were analyzed using Bruker MI SE software (Bruker Biospin Corporation, Woodbridge, CT, USA).

CC(=O)N[C@H]1CCCN(O)C(=O)/C=C(/C)CCOC(=O)[C@@H](NC(=O)CCOCCOCCOCCOCCOCCC(=O)NCc2ccc(-c3nncnn3)cc2)CCCN(O)C(=O)/C=C(/C)CCOC(=O)[C@@H](NC(=O)CCCCC[N+]2=C(/C=C/C3=CC(=C/C=C4/N(C)c5ccc(S(=O)(=O)O)cc5C4(C)C)/CCC3)C(C)(C)c3cc(S(=O)(=O)[O-])ccc32)CCCN(O)C(=O)/C=C(/C)CCOC1=O [SulfoCy7-MAFC-PEG5-Tz]
Cell binding (cell-associated activity of total activity applied) [1]: 4.12 ± 0.88% | Organ activities compared with SulfoCy5 and IRDye800CW counterparts [2]: higher activities in all organs | logD [3]: -1.92 ± 0.05

C/C1=C/C(=O)N(O)CCC[C@H](NC(=O)CCOCCOCCOCCOCCOCCC(=O)NCc2ccc(-c3nncnn3)cc2)C(=O)OCC/C(C)=C\C(=O)N(O)CCC[C@H](NC(=O)CCOCCOCCOCCOCCOCCC(=O)NCc2ccc(-c3nncnn3)cc2)C(=O)OCC/C(C)=C\C(=O)N(O)CCC[C@H](NC(=O)CCCCC[N+]2=C(/C=C/C3=C(Oc4ccc(S(=O)(=O)O)cc4)C(=C/C=C4/N(CCCCS(=O)(=O)O)c5ccc(S(=O)(=O)O)cc5C4(C)C)/CCC3)C(C)(C)c3cc(S(=O)(=O)[O-])ccc32)C(=O)OCC1 [IRDye800CW-FSC-(PEG5-Tz)2]
Bone uptake in PET/CT and optical imaging [4]: high accumulation in joints and spine | Cell binding (cell-associated activity of total activity applied) [1]: 4.59 ± 1.45% | logD [3]: -2.46 ± 0.09

CC(=O)N[C@H]1CCCN(O)C(=O)/C=C(/C)CCOC(=O)[C@@H](NC(=O)CCOCCOCCOCCOCCOCCC(=O)NCc2ccc(-c3nncnn3)cc2)CCCN(O)C(=O)/C=C(/C)CCOC(=O)[C@@H](NC(=O)CCCCC[N+]2=C(/C=C/C=C/C=C3/N(C)c4ccc(S(=O)(=O)O)cc4C3(C)C)C(C)(C)c3cc(S(=O)(=O)[O-])ccc32)CCCN(O)C(=O)/C=C(/C)CCOC1=O [SulfoCy5-MAFC-PEG5-Tz]
Cell binding (cell-associated activity of total activity applied) [1]: 3.09 ± 0.58% | logD [3]: -2.85 ± 0.08

C/C1=C/C(=O)N(O)CCC[C@H](NC(=O)CCOCCOCCOCCOCCOCCC(=O)NCc2ccc(-c3nncnn3)cc2)C(=O)OCC/C(C)=C\C(=O)N(O)CCC[C@H](NC(=O)CCOCCOCCOCCOCCOCCC(=O)NCc2ccc(-c3nncnn3)cc2)C(=O)OCC/C(C)=C\C(=O)N(O)CCC[C@H](NC(=O)CCCCC[N+]2=C(/C=C/C=C/C=C3/N(C)c4ccc(S(=O)(=O)O)cc4C3(C)C)C(C)(C)c3cc(S(=O)(=O)[O-])ccc32)C(=O)OCC1 [SulfoCy5-FSC-(PEG5-Tz)2]
Cell binding (cell-associated activity of total activity applied) [1]: 5.91 ± 1.62% | logD [3]: -2.29 ± 0.1

CC(=O)N[C@H]1CCCN(O)C(=O)/C=C(/C)CCOC(=O)[C@@H](NC(=O)CCOCCOCCOCCOCCOCCC(=O)NCc2ccc(-c3nncnn3)cc2)CCCN(O)C(=O)/C=C(/C)CCOC(=O)[C@@H](NC(=O)CCCCC[N+]2=C(/C=C/C3=C(Oc4ccc(S(=O)(=O)O)cc4)C(=C/C=C4/N(CCCCS(=O)(=O)O)c5ccc(S(=O)(=O)O)cc5C4(C)C)/CCC3)C(C)(C)c3cc(S(=O)(=O)[O-])ccc32)CCCN(O)C(=O)/C=C(/C)CCOC1=O [IRDye800CW-MAFC-PEG5-Tz]
Cell binding (cell-associated activity of total activity applied) [1]: 2.88 ± 0.53% | logD [3]: -2.4 ± 0.05
